Measured values reported in patent US6653258B1 (priority 1987, dated 2003).

Experiments:
[1] = system: foliar fungal diseases of plants; assay type: in vivo; design: key to disease control grading, […] (VINE): 4: no disease; 3: trace −5% of disease on untreated plants; key to disease control grading, PUCCINIA RECONDITA (WHEAT) / disease control grading, VENTURIA INAEQUALIS (APPLE) / disease control grading, CERCOSPORA ARACHIDICOLA (PEANUT) / disease control grading, PH[…] (TOMATO) / disease control grading, P[…] (RICE): 4: no disease; 3: trace −5% of disease on untreated plants; 6-25% of disease on untreated plants; 1: 26-59% of disease on untreated plants; 60-100% of disease on untreated plants; conditions: applied to soil (roots) and foliage one or two days before inoculation; for disease control grading, CERCOSPORA ARACHIDICOLA (PEANUT): Cercospora arachidicola on peanut; for disease control grading, P[…] (RICE): P[…] on rice; for disease control grading, PH[…] (TOMATO): Ph[…] on tomato; for disease control grading, PUCCINIA RECONDITA (WHEAT): Puccinia recondita on wheat; for disease control grading, VENTURIA INAEQUALIS (APPLE): Venturia inaequalis on apple; for disease control grading, […] (VINE): […] on vine
[2] = system: Erysiphe graminis; experiment: Foliar fungal disease test on Erysiphe graminis, plants inoculated 24 hours before treatment (Table V); assay type: in vivo; design: key: 4: no disease; 3: trace −5% of disease on untreated plants; 6-25% of disease on untreated plants; 1: 26-59% of disease on untreated plants; 60-100% of disease on untreated plants; conditions: plants inoculated 24 hours before treatment

SMILES	disease control grading, CERCOSPORA ARACHIDICOLA (PEANUT) [1]	disease control grading, P[…] (RICE) [1]	disease control grading, PH[…] (TOMATO) [1]	disease control grading, PUCCINIA RECONDITA (WHEAT) [1]	disease control grading, VENTURIA INAEQUALIS (APPLE) [1]	disease control grading, […] (VINE) [1]	disease control grading, ERYSIPHE GRAMINIS (BARLEY) [2]
CO/C=C(/C(=O)OC)c1ccccc1COc1ccc(Cl)cc1Cl [43 (Table I)]	4	4	4	4	4	4	4
CO/C=C(/C(=O)OC)c1ccccc1COc1cccc(C)c1 [164 (Table I)]	4	4	3 (trace −5% of disease on untreated plants)	4	4	4	4
CO/C=C(/C(=O)OC)c1ccccc1COc1cccc(/N=C/c2ccccc2)c1 [180 (Table I)]	4	2 (6-25% of disease on untreated plants)	4	3 (trace −5% of disease on untreated plants)	0 (60-100% of disease on untreated plants)	4	0 (60-100% of disease on untreated plants)
CO/C=C(/C(=O)OC)c1ccccc1COc1cccc(N)c1 [34 (Table I)]	0 (60-100% of disease on untreated plants)	0 (60-100% of disease on untreated plants)	4	3 (trace −5% of disease on untreated plants)	3 (trace −5% of disease on untreated plants)	4	0 (60-100% of disease on untreated plants)
CO/C=C(/C(=O)OC)c1ccccc1COc1cc(Cl)cc(OC)c1 [167 (Table I)]	3 (trace −5% of disease on untreated plants)	4	4	4	4	4	4
CO/C=C(/C(=O)OC)c1ccccc1COc1cccc(C(F)(F)F)n1 [177 (Table I)]		4	4	4	4	4	4
CO/C=C(/C(=O)OC)c1ccccc1COc1ccc(Br)cc1 [159 (Table I)]	4	0 (60-100% of disease on untreated plants)	3 (trace −5% of disease on untreated plants)	4	4	0 (60-100% of disease on untreated plants)	3 (trace −5% of disease on untreated plants)
CO/C=C(/C(=O)OC)c1ccccc1COc1cc(C(F)(F)F)ccn1 [174 (Table I)]	4	0 (60-100% of disease on untreated plants)	4	4	4	4	4
CO/C=C(/C(=O)OC)c1ccccc1COc1cccc(Oc2ccccc2OC)c1 [173 (Table I)]	4	0 (60-100% of disease on untreated plants)	4	4	4	4	3 (trace −5% of disease on untreated plants)
CO/C=C(/C(=O)OC)c1ccccc1COc1cccc(C(F)(F)F)c1 [168 (Table I)]	3 (trace −5% of disease on untreated plants)	4	4	4	4	4	4
